Read-outs that look alike come from different tables or passages of the source.
Tests used:
CD34+ cells [1] = test: NK cell expansion from CD34+ cells cultured with CRL compounds (three-stage NK culture, Day 35); type: cell-based, human; details: 10 μM; for expansion compared to SR1 / cell expansion, rank among all the compounds: Day 35; for expansion compared to SR1: SR1 10 μM positive control; for expansion, differentiation and cytotoxicity profiles compared to SR1: PNK-007 culture
Excerpt: (§1) UCB CD34+ cells were cultivated in presence of cytokines including thrombopoietin, SCF, Flt3 ligand, IL-7, IL-15 and IL-2 for 35 days to produce three-stage NK cells, as described in Example 1. Multi-color flow cytometry was used to determine the phenotypic characteristics of three-stage NK cells.
(§2) For biological testing, the compounds were provided to culture to evaluate their effects on NK cell expansion and differentiation. Specifically, donors of CD34+ cells (StemCell Technology) were thawed and expanded in vitro following NK culture protocol. During the first 14 days of the culture, each CRL compounds was dissolved in DMSO and added to the culture at 10 μM concentration. SR1 (at 10 μM) served as a positive control compound, while DMSO alone without any compound served as a negative control. At the end of the culture on Day 35, cell expansion, natural killer (NK) cell differentiation and cytotoxicity of the cells against K562 tumor cell line were characterized. Due to the large number of the compounds, the testing was performed in two experiments, CRL1-11 and CRL 12-22. The same donors were used for each experiment. Positive and negative controls were also included in both experiments.

CD34+ cells [2] = test: NK cell differentiation of compound cultured cells (flow cytometry); type: cell-based, human; details: compared to SR1
Excerpt: as §1, §2

K562 tumor cells = test: Cytotoxicity assay of compound cultured cells against K562 tumor cells; type: cell-based; details: 10:1 effector to target ratio; both donors
Experimental: as §2
Cytotoxicity assay was run using compound cultured cells against K562 tumor cells at 10:1 effector to target ratio (FIG. 5) to evaluate cell functions.

CD34 cells = test: CD34 cell expansion at Day 14 of the culture; type: cell-based, human; details: 10 μM
Experimental: as §2

NDMM patients = details: cited from earlier work

SMILES	expansion compared to SR1 (CD34+ cells [1])	CD56+/CD11a+ subpopulation (CD34+ cells [2])	killing activities compared to cells cultured with SR1 (K562 tumor cells)	cell expansion, rank among all the compounds (CD34+ cells [1])	expansion, differentiation and cytotoxicity profiles compared to SR1 (CD34+ cells [1])	CD34 cell expansion (CD34 cells)	other results
CC(C)c1csc2c(NCCc3c[nH]c4ccccc34)nc(-c3cncc(C#N)c3)nc12 [CRL17, 5-(4-((2-(1H-indol-3-yl)ethyl)amino)-7-isopropylthieno[3,2-d]pyrimidin-2-yl)nicotinonitrile]	slightly less expansion compared to SR1	increased CD56+/CD11a+ subpopulation	increased killing activities of the cells				
CC(C)c1csc2c(NCCc3c[nH]c4ccccc34)nc(-c3cncc(F)c3)nc12 [CRL18, N-(2-(1H-indol-3-yl)ethyl)-2-(5-fluoropyridin-3-yl)-7-isopropylthieno[3,2-d]pyrimidin-4-amine]	slightly less expansion compared to SR1	increased CD56+/CD11a+ subpopulation	increased killing activities of the cells				
Fc1cncc(-c2nc(NCCc3c[nH]c4ccccc34)c3occc3n2)c1 [CRL19, N-(2-(1H-indol-3-yl)ethyl)-2-(5-fluoropyridin-3-yl)furo[3,2-d]pyrimidin-4-amine]				supported cell expansion the best	very similar expansion, differentiation and cytotoxicity profiles as SR1	achieved the highest CD34 cell expansion	
Cc1cncc(-c2nc(NCCc3c[nH]c4ccccc34)c3occc3n2)c1 [CRL20, N-(2-(1H-indol-3-yl)ethyl)-2-(5-methylpyridin-3-yl)furo[3,2-d]pyrimidin-4-amine]				supported cell expansion the best	very similar expansion, differentiation and cytotoxicity profiles as SR1	achieved the highest CD34 cell expansion	
Cc1cncc(-c2nc(NCCc3c[nH]c4ccccc34)c3scc(C(C)C)c3n2)c1 [CRL21, N-(2-(1H-indol-3-yl)ethyl)-7-isopropyl-2-(5-methylpyridin-3-yl)thieno[3,2-d]pyrimidin-4-amine]	slightly less expansion compared to SR1	increased CD56+/CD11a+ subpopulation	increased killing activities of the cells				
N#Cc1cncc(-c2nc(NCCc3c[nH]c4ccccc34)c3occc3n2)c1 [CRL22, 5-(4-((2-(1H-indol-3-yl)ethyl)amino)furo[3,2-d]pyrimidin-2-yl)nicotinonitrile]				supported cell expansion the best	very similar expansion, differentiation and cytotoxicity profiles as SR1	achieved the highest CD34 cell expansion	
Nc1cccc2c1CN(C1CCC(=O)NC1=O)C2=O (stereo not shown) [lenalidomide, 3-(4′ aminoisoindoline-1′-one)-1-piperidine-2,6-dione]							ORR (VGPR or better) (NDMM patients; 1 year post ASCT): 48%; ORR (VGPR or better) (NDMM patients; 2 year post ASCT): 36%; hazard ratio for TTP versus placebo (NDMM patients; 95% CI 0.46-0.71, p<0.0001): 0.57; median TTP (NDMM patients; 95% CI 44.2-73.3, not accounting for crossover): 57.3 months
